Patent US20260223853A1, “PESTICIDALLY ACTIVE HETEROCYCLIC DERIVATIVES WITH SULFUR CONTAINING SUBSTITUENTS” (SYNGENTA CROP PROTECTION AG, priority 2023, published 2026)

Key:
Type in all cases: in vivo
[1] = test system: Diabrotica balteata (Corn Root Worm); assay: Example B2: Activity against Diabrotica balteata (corn root worm), maize sprouts, L2 larvae; conditions: 96 h, application rate of 200 ppm, 4 days after infestation, in comparison to untreated samples, read-out: effect in at least one of the two categories (mortality or growth inhibition)
Method: Example B2: Activity Against Diabrotica balteata (Corn Root Worm)
Maize sprouts placed onto an agar layer in 24-well microtiter plates were treated with aqueous test solutions prepared from 10′000 ppm DMSO stock solutions by spraying. After drying, the plates were infested with L2 larvae (6 to 10 per well). The samples were assessed for mortality and growth inhibition in comparison to untreated samples 4 days after infestation.

[2] = test system: Plutella xylostella (Diamond Back Moth); assay: Example B6: Activity against Plutella xylostella (diamond back moth), artificial diet, eggs; conditions: 192 h, application rate of 200 ppm, 8 days after infestation, in comparison to untreated samples, read-out: effect in at least one of the two categories (mortality or growth inhibition)
Method: Example B6: Activity Against Plutella xylostella (Diamond Back Moth)
24-well microtiter plates with artificial diet were treated with aqueous test solutions prepared from 10′000 ppm DMSO stock solutions by pipetting. After drying, Plutella eggs were pipetted through a plastic stencil onto a gel blotting paper and the plate was closed with it. The samples were assessed for mortality and growth inhibition in comparison to untreated samples 8 days after infestation. The following compounds gave an effect of at least 80% in at least one of the two categories (mortality or growth inhibition) at an application rate of 200 ppm: P.1, P.2, P.3, P.4, P.5, P.6, P.7, P.8, P.9, P.10, P.11, P.12.

[3] = test system: Myzus persicae (Green peach aphid); assay: Example B5: Activity against Myzus persicae (green peach aphid), systemic activity, pea seedlings; conditions: 144 h, test rate of 24 ppm, 6 days after placing seedlings into test solutions
Method: Example B5: Activity Against Myzus persicae (Green Peach Aphid) Systemic Activity
Roots of pea seedlings infested with an aphid population of mixed ages were placed directly into aqueous test solutions prepared from 10′000 DMSO stock solutions. The samples were assessed for mortality 6 days after placing seedlings into test solutions.

[4] = test system: Myzus persicae (Green peach aphid); assay: Example B4: Activity against Myzus persicae (green peach aphid), feeding/contact activity, sunflower leaf discs; conditions: foliar, 144 h, application rate of 200 ppm, 6 days after infestation
Method: Example B4: Activity against Myzus persicae (Green peach aphid) Feeding/Contact activity Sunflower leaf discs were placed onto agar in a 24-well microtiter plate and sprayed with aqueous test solutions prepared from 10′000 ppm DMSO stock solutions. After drying, the leaf discs were infested with an aphid population of mixed ages. The samples were assessed for mortality 6 days after infestation.

[5] = test system: Euschistus heros (Neotropical Brown Stink Bug); assay: Example B3: Activity against Euschistus heros (neotropical brown stink bug), soybean leaves, N2 nymphs; conditions: 120 h, application rate of 200 ppm, 5 days after infestation, in comparison to untreated samples, read-out: effect in at least one of the two categories (mortality or growth inhibition)
Method: Example B3: Activity Against Euschistus heros (Neotropical Brown Stink Bug)
Soybean leaves on agar in 24-well microtiter plates were sprayed with aqueous test solutions prepared from 10′000 ppm DMSO stock solutions. After drying the leaves were infested with N2 nymphs. The samples were assessed for mortality and growth inhibition in comparison to untreated samples 5 days after infestation.

[6] = test system: Spodoptera littoralis (Egyptian Cotton Leaf Worm); assay: Example B7: Activity against Spodoptera littoralis (Egyptian cotton leaf worm), cotton leaf discs, L1 larvae; conditions: foliar, 72 h, application rate of 200 ppm, 3 days after infestation, in comparison to untreated samples, read-out: control (at least one of mortality, anti-feedant effect, growth inhibition)
Method: Example B7: Activity Against Spodoptera littoralis (Egyptian Cotton Leaf Worm)
Cotton leaf discs were placed onto agar in 24-well microtiter plates and sprayed with aqueous test solutions prepared from 10′000 ppm DMSO stock solutions. After drying the leaf discs were infested with five L1 larvae. The samples were assessed for mortality, anti-feeding effect, and growth inhibition in comparison to untreated samples 3 days after infestation. Control of Spodoptera littoralis by a test sample is given when at least one of the categories mortality, anti-feedant effect, and growth inhibition is higher than the untreated sample.

[7] = test system: Chilo suppressalis (Striped Rice Stemborer); assay: Example B1: Activity against Chilo suppressalis (striped rice stemborer), artificial diet, L2 larvae; conditions: 144 h, application rate of 200 ppm, 6 days after infestation, in comparison to untreated samples, read-out: control (at least one of mortality, anti-feedant effect, growth inhibition)
Method: Example B1: Activity Against Chilo suppressalis (Striped Rice Stemborer)
24-well microtiter plates with artificial diet were treated with aqueous test solutions prepared from 10′000 ppm DMSO stock solutions by pipetting. After drying, the plates were infested with L2 larvae (6-8 per well). The samples were assessed for mortality, anti-feeding effect, and growth inhibition in comparison to untreated samples 6 days after infestation. Control of Chilo suppressalis by a test sample is given when at least one of the categories mortality, anti-feedant effect, and growth inhibition is higher than the untreated sample.

CCS(=O)(=O)c1cc(C2(C#N)CC2)cnc1N1CCc2nc(C(F)(F)F)ccc2C1=O [P.3, 1-[5-ethylsulfonyl-6-[5-oxo-2-(trifluoromethyl)-7,8-dihydro-1,6-naphthyridin-6-yl]-3-pyridyl] cyclopropane-carbonitrile]
≥ 80%: percent effect (mortality or growth inhibition) at 200 ppm [1] | percent effect (mortality or growth inhibition) at 200 ppm [2] | mortality at 24 ppm [3] | mortality at 200 ppm [4] | percent effect (mortality or growth inhibition) at 200 ppm [5] | control at 200 ppm [6] | percent control (mortality, anti-feedant effect or growth inhibition) at 200 ppm [7]
